# In article PMC10573198, “Synthesis, Physicochemical Characterization using a Facile Validated HPLC Quantitation Analysis Method of 4-Chloro-phenylcarbamoyl-methyl Ciprofloxacin and Its Biological Investigations” (International Journal of Molecular Sciences, 2023):
# Experiments:
# DNA gyrase = target: T1, DNA gyrase (Staphylococcus aureus, UniProt P0A0K8+P20831); test: S. aureus gyrase supercoiling assay, relaxed pBR322, agarose gel; type: biochemical
# T1 construct: gene gyrA; with DNA gyrase subunit B (GyrB); plasmid DNA
# Topoisomerase IV = target: T2, Topoisomerase IV (Staphylococcus aureus, UniProt P0C1S7+Q2FYS4); test: Topo IV kDNA decatenation assay, agarose gel; type: biochemical
# T2 construct: gene parC; with Topoisomerase IV subunit B (ParE); kDNA substrate
# T2 sequence (Q2FYS4 whole entry): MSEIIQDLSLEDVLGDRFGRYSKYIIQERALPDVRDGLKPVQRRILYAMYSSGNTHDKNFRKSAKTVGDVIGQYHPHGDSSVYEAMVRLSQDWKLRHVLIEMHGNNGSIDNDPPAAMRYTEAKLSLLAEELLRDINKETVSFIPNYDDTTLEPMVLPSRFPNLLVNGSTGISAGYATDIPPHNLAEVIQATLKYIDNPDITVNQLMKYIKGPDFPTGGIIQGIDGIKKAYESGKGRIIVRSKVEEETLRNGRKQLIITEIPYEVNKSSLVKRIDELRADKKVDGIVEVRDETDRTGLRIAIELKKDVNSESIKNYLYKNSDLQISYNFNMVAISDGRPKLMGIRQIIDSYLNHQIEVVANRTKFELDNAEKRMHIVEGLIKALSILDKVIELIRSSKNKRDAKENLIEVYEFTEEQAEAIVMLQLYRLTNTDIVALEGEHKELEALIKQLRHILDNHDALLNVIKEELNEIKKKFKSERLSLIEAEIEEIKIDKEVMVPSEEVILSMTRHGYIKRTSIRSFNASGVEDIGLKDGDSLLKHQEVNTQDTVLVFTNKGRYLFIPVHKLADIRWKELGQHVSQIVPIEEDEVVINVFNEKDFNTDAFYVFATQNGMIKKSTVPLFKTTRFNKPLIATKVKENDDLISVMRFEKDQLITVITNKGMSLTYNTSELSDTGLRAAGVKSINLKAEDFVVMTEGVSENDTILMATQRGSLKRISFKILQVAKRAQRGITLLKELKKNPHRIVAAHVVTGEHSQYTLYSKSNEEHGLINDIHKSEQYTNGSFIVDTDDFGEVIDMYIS
# T2 sequence (P0C1S7 whole entry): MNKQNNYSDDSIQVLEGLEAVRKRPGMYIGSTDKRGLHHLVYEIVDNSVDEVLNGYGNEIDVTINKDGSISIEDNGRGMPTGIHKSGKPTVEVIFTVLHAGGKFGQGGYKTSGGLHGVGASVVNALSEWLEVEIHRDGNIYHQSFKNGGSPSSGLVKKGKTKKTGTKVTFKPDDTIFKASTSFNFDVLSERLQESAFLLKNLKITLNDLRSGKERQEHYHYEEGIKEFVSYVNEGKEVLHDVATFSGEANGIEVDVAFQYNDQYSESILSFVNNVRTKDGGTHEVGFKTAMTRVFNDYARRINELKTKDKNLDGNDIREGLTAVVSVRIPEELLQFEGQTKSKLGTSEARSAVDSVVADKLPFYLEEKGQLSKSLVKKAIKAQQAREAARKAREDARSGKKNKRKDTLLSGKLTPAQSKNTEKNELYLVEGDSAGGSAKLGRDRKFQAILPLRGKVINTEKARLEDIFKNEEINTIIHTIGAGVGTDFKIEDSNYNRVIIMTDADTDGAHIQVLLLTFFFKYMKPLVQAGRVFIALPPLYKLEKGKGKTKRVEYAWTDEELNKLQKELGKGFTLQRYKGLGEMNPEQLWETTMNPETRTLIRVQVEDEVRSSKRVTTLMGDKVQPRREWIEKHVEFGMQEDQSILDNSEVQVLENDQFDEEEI
# T1 sequence (P0A0K8 2-644): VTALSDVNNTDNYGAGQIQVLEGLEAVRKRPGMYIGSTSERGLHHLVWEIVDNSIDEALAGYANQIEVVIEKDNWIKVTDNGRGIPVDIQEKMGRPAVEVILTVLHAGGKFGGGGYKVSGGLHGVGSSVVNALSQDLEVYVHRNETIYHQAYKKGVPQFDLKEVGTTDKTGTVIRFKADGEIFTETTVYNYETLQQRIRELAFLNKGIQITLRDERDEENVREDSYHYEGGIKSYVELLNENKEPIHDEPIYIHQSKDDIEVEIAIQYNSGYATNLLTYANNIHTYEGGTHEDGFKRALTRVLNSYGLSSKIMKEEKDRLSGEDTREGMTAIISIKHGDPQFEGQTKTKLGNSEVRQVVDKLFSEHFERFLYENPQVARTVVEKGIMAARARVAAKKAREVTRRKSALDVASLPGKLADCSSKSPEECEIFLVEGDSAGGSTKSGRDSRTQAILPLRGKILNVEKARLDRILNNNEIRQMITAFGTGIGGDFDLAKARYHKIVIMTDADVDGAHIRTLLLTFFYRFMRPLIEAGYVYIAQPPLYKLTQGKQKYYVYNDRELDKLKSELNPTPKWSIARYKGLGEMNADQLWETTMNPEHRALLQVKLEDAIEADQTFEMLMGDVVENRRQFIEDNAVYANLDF
# T1 sequence (P20831 whole entry): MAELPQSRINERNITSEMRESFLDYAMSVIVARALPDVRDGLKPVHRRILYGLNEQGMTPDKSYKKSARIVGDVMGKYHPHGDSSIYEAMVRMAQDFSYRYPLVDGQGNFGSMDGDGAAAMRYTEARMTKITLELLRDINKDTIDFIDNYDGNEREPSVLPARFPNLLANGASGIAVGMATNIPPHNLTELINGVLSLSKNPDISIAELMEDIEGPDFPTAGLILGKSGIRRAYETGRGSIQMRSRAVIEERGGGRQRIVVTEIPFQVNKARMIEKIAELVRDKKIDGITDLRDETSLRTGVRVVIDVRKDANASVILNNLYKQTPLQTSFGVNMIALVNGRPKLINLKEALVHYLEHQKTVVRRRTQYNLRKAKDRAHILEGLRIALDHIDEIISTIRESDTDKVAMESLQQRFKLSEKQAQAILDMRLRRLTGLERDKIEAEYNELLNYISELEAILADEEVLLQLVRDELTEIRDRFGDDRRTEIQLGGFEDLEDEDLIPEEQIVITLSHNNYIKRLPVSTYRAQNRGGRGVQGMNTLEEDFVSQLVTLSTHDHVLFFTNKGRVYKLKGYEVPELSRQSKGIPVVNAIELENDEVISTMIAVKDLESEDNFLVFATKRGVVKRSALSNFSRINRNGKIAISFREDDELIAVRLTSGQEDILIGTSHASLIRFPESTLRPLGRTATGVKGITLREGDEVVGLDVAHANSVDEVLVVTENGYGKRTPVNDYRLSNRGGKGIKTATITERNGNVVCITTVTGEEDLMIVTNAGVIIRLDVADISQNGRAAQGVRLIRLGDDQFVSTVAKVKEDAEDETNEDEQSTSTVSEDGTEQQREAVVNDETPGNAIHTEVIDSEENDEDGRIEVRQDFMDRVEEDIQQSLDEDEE
smiles,measurement,setting,value
O=C(CN1CCN(c2cc3c(cc2F)c(=O)c(C(=O)O)cn3C2CC2)CC1)Nc1ccc(Cl)cc1 [Cpx-Drv],IC50,DNA gyrase,13.5 µM
same,IC50,Topoisomerase IV,3.83 µM
